These are literature values, as cited in paper PMC7503225, “Repositioning Dequalinium as Potent Muscarinic Allosteric Ligand by Combining Virtual Screening Campaigns and Experimental Binding Assays” (International Journal of Molecular Sciences, 2020).

Broadly, the logP is the decadic logarithm of the partition coefficient of the neutral form, usually between octanol and water.

For the data set the following is noted: ref DrugBank [16]; cited from earlier work.

As for `CC(C)(C)C(=O)OCOP(=O)(COCCn1cnc2c(N)ncnc21)OCOC(=O)C(C)(C)C` [adefovir dipivoxil], the logP is 1.5. On to `C=CCNc1nc(NCC=C)nc(N2CCN(C(c3ccc(F)cc3)c3ccc(F)cc3)CC2)n1` [almitrine], for which the logP was 4.1. For `CC[N+](CC)(CCNC(=O)C(=O)NCC[N+](CC)(CC)Cc1ccccc1Cl)Cc1ccccc1Cl` [ambenonium], the logP is 2.3. Turning to `CC(C)COCC(CN(Cc1ccccc1)c1ccccc1)N1CCCC1` (stereo not drawn) [bepridil], the logP was 5.2. For the compound `CCNC(=O)CCC/C=C\C[C@@H]1[C@@H](/C=C/[C@@H](O)CCc2ccccc2)[C@H](O)C[C@@H]1O` [bimatoprost], the logP is recorded as 3.4. Regarding `COc1ccccc1OCCNCC(O)COc1cccc2[nH]c3ccccc3c12` (stereo not drawn) [carvedilol], the logP was 3.1. As to `CC(=O)N(O)CCCCCNC(=O)CCC(=O)N(O)CCCCCNC(=O)CCC(=O)N(O)CCCCCN` [deferoxamine], the logP is 0.9.

As to `CN(CCCCCCCCCCN(C)C(=O)Oc1cccc([N+](C)(C)C)c1)C(=O)Oc1cccc([N+](C)(C)C)c1` [demecarium], the logP is 0.6.

As for `CCCCC[C@H](O)/C=C/[C@H]1[C@H](O)CC(=O)[C@@H]1C/C=C\CCCC(=O)O` [dinoprostone], the logP is given as 2.8.

`C[N+](C)(CCCCCC[N+](C)(C)C1c2ccccc2-c2ccccc21)C1c2ccccc2-c2ccccc21` [hexafluronium]: the logP is 1.8. Take `CC#CCC(C)[C@H](O)/C=C/[C@@H]1[C@H]2C/C(=C/CCCC(=O)O)C[C@H]2C[C@H]1O` (stereo partly drawn) [iloprost]: the logP is reported as 4.2. Take `CS(=O)(=O)CCNCc1ccc(-c2ccc3ncnc(Nc4ccc(OCc5cccc(F)c5)c(Cl)c4)c3c2)o1` [lapatinib]: the logP was 5.2.

As for `CC(C)OC(=O)CCC/C=C\C[C@@H]1[C@@H](CC[C@@H](O)CCc2ccccc2)[C@H](O)C[C@@H]1O` [latanoprost], the logP is 4.2. With `C/C(=C\C(=O)OCCCCCCCCC(=O)O)C[C@@H]1OC[C@H](C[C@@H]2O[C@H]2[C@@H](C)[C@H](C)O)[C@@H](O)[C@H]1O` [mupirocin], the logP was 2.2.

For the compound `CC1=C(C/C=C(\C)CCC[C@H](C)CCC[C@H](C)CCCC(C)C)C(=O)c2ccccc2C1=O` [phytonadione], the logP was 9.3. Take `O=c1[nH]c2ccccc2n1C1CCN(CCCC(c2ccc(F)cc2)c2ccc(F)cc2)CC1` [pimozide]: the logP is 6.3.

Regarding `C[C@H](Cc1cc2c(c(C(N)=O)c1)N(CCCO)CC2)NCCOc1ccccc1OCC(F)(F)F` [silodosin], the logP is recorded as 3.0. As to `CC(C)N1CCN(c2ccc(OCC3COC(Cn4cncn4)(c4ccc(Cl)cc4Cl)O3)cc2)CC1` (stereo not drawn) [terconazole], the log partition coefficient (logP) is 4.5.

With `CC(C)OC(=O)CCC/C=C\C[C@@H]1[C@@H](/C=C/[C@@H](O)COc2cccc(C(F)(F)F)c2)[C@H](O)C[C@@H]1O` [travoprost], the logP is given as 4.6. In the case of `N#Cc1ccc2[nH]cc(CCCCN3CCN(c4ccc5oc(C(N)=O)cc5c4)CC3)c2c1` [vilazodone], the logP was 4.2.

Take `CCOC(=O)CN[C@@H](C(=O)N1CC[C@H]1C(=O)NCc1ccc(/C(N)=N\O)cc1)C1CCCCC1` [ximelagatran]: the logP is recorded as 1.4.
